≈ marks a conversion by molar mass, not a printed value. Where “and” joins values, the source holds several entries; their conditions need not be identical. Equal entries are not always repeated.
Assays:
Experiment in all cases: ≥ marks a high value that may be exact or a test limit, other limits are often not marked, values filed in µg/mL are converted to µM
[1] = test system: Enterococcus faecium ATCC 700221
[2] = test system: Staphylococcus aureus MR
[3] = test system: Pseudomonas aeruginosa 86
[4] = test system: Klebsiella aerogenes ATCC 13048
[5] = test system: Escherichia coli ML-35
[6] = test system: Proteus mirabilis
[7] = test system: Escherichia coli 780
[8] = test system: Pseudomonas aeruginosa 124
[9] = test system: Escherichia coli DL7
[10] = test system: Bacillus subtilis CCT 2471
[11] = test system: Candida albicans ATCC 200955
[12] = test system: Staphylococcus aureus ATCC 6538
[13] = test system: Acinetobacter baumannii ATCC 19606
[14] = test system: Pseudomonas aeruginosa 119
[15] = test system: Staphylococcus epidermidis ATCC 12228
[16] = test system: Escherichia coli DH5alpha
[17] = test system: Escherichia coli ATCC 8739
[18] = test system: Staphylococcus aureus ATCC 33591
[19] = test system: Escherichia coli CCT 1371
[20] = test system: Acinetobacter baumannii
[21] = test system: Escherichia coli 804
[22] = test system: Enterobacter cloacae ATCC 23355
[23] = test system: Escherichia coli 850
[24] = test system: Bacillus subtilis DELTA
[25] = test system: Klebsiella pneumoniae ATCC 700603
[26] = test system: Staphylococcus aureus 936
[27] = test system: Candida parapsilosis
[28] = test system: Escherichia coli MG1655
[29] = test system: Pseudomonas aeruginosa PAO1
[30] = test system: Staphylococcus saprophyticus
[31] = test system: Zymomonas mobilis ATCC 10988
[32] = test system: Candida albicans ATCC 10231
[33] = test system: Bacillus thuringiensis
[34] = test system: Pseudomonas aeruginosa

CC[C@H](C)[C@H](NC(=O)[C@H](CCCN=C(N)N)NC(=O)[C@H](CCCCN)NC(=O)[C@H](CC(C)C)NC(=O)[C@H](CC(C)C)NC(=O)CN)C(=O)N[C@@H](CCCCN)C(=O)N[C@H](C(=O)N[C@@H](CC(C)C)C(=O)N[C@@H](CC(C)C)C(N)=O)[C@@H](C)O [GLLKRIKTLL]
MIC [1]: ≥ 133 µM
MIC [2]: ≥ 45.3 µM
MIC [3]: 4 µM (≈ 4.61 µg/mL)
MIC [4]: ≥ 32 µM
MIC [5]: 8 µM (≈ 9.23 µg/mL)
MIC [6]: ≥ 173 µM
MIC [7]: 16 µM (≈ 18.5 µg/mL)
MIC [8]: ≥ 32 µM
MIC [9]: 16 µM (≈ 18.5 µg/mL)
MIC [10]: 17.3 µM (≈ 20 µg/mL)
MIC [11]: ≥ 171 µM
MIC [12]: 43.3 µM and 65 µM
MIC [13]: 64 µM (≈ 73.8 µg/mL)
MIC [14]: 4 µM (≈ 4.61 µg/mL)
MIC [15]: 8 µM (≈ 9.23 µg/mL)
MIC [16]: ≥ 260 µM
MIC [17]: ≥ 35.5 µM
MIC [18]: ≥ 512 µM
MIC [19]: ≥ 86.6 µM
MIC [20]: 16 µM (≈ 18.5 µg/mL)
MIC [21]: ≥ 32 µM
MIC [22]: ≥ 173 µM
MIC [23]: ≥ 32 µM
MIC [24]: ≥ 173 µM
MIC [25]: 64 µM and 128 µM
MIC [26]: ≥ 64 µM
MIC [27]: ≥ 43.3 µM
MIC [28]: ≥ 32 µM
MIC [29]: 173 µM (≈ 200 µg/mL)
MIC [30]: 4.33 µM (≈ 5 µg/mL)
MIC [31]: ≥ 173 µM
MIC [32]: 16.9 µM (≈ 19.5 µg/mL)
MIC [33]: ≥ 173 µM
MIC [34]: 11.3 µM (≈ 13.1 µg/mL)
